Measurements from BindingDB's records for doi:10.1021/jm00062a001 (Upjohn Laboratories, 1993).

What was measured:
[1] = Binding affinity against 5-hydroxytryptamine 1A receptor from bovine hippocampus, used [3H]8-OH-DPAT as radioligand
[2] = biological target: 5-hydroxytryptamine receptor 1A (Bos taurus); assay: as above

Row | Compound | Ki [1] [nM] | Ki [2] [nM]
1 | CCCN1CC[C@H]2c3c(cccc3OC)CC[C@H]21 [(3aS,9bR) 9-Methoxy-3-propyl-2,3,3a,4,5,9b-hexahydro-1H-benzo[e]indole] | 4.4 | –
2 | Cc1[nH]c2cccc3c2c1C[C@@H]1C3C[C@H](NC(=O)C(C)(C)C)CN1C (some centres not stated) [SDZ-208-911] | – | 19
